Assay results taken from ChEMBL document CHEMBL1158867, “Activity-guided isolation of constituents of Tephrosia purpurea with the potential to induce the phase II enzyme, quinone reductase” (J Nat Prod, 1997).

Legend:
[1] = Cytotoxicity against mouse Hepa-1c1c7 cells assessed as cell survival after 2 days by MTT assay; assay type: functional, cell-based; settings: Hepa-1c1c7, 48 h
[2] = Chemoprevention index, ratio of IC50 for mouse Hepa-1c1c7 cells to drug level required to double quinone reductase activity in mouse Hepa-1c1c7 cells; assay type: functional

SMILES	IC50 [1] [µM]	Ratio [2]
C[S+]([O-])CCCCN=C=S (stereo not drawn) [SULFORAPHANE]	11	25
COc1c(O)ccc2c1OC[C@H]1c3cc4c(cc3O[C@@H]21)OCO4	> 63.7	>4.4
COc1ccc2c(c1)O[C@H]1c3ccc(O)cc3OC[C@@H]21	> 74	>5.4
COc1c(C(=O)/C=C(\O)c2ccccc2)ccc2occc12 [PONGAMOL]	18.7	3.1
COc1cc(-c2coc3cc(O)ccc3c2=O)cc(OC)c1O	> 63.7	>3.7
Oc1ccc2c(c1)OC[C@H]1c3cc4c(cc3O[C@@H]21)OCO4 [MAACKIAIN]	> 70.4	>8
O=c1cc(-c2ccccc2)oc2c1ccc1occc12 [LANCEOLATIN B]	> 76.3	>3.3
COc1cc2c(c3c1C(=O)C[C@@H](c1ccccc1)O3)[C@H]1[C@@H](O2)OC(C)(C)[C@@H]1OC(C)=O	> 50.7	>9
COc1cc2c(c(O)c1C(=O)/C=C/c1ccccc1)[C@H]1[C@@H](O2)OC(C)(C)[C@@H]1OC(C)=O [TEPHROPURPURIN]	13.4	89
